Entries after “also recorded” stand apart in the source; their conditions may differ. Ends that are not written are not given here.

Series [1] in a line: In vitro immunoproteasome digestion of 27mer peptides, MS/MS analysis. In kind it is in vitro ADME. Conditions: immunoproteasomes isolated from T2.27mp cells, 3 nmol 27mer, 1 µg immunoproteasome; for metabolised at 0.5 h, 30 µM: 100 µl 20 mM Hepes/KOH pH 7.8, 2 mM Mg acetate, 2 mM DTT, RP-HPLC ESI MS intensity, 30 min, read-out: substrate degraded after 30 min; for metabolised at 2 h, 30 µM: Hepes/KOH pH 7.8, MS intensity, read-out: substrate degraded after 2 h. How it is done: Immunoproteasomes were isolated from T2.27mp cells (that stably express all three immunosubunits) as previously described. Purified proteasomes were analyzed by SDS-PAGE. The yield was calculated at 90–95%. The 27mer peptides encompassing Q9VF/5D or Q9VF/5N were synthesized using standard Fmoc method on an Applied Biosystems 433A automated synthesizer. The peptides were purified by HPLC and analyzed by mass spectrometry. Three nmol of peptides were digested in vitro using 1 µg of proteasomes (for 0.5, 1, 2, 4, 8 and 18 h) in 100 µl of buffer containing 20 mM Hepes/KOH, pH 7.8, 2 mM magnesium acetate and 2 mM dithiothreitol. Reactions were stopped by the addition of trifluoroacetic acid to a final concentration of 0.3%. The digestions were analyzed, by mass spectrometry (RP-HPLC ESI) and the products were identified by MS/MS.

Series [2] concerns HIVLAI-infected T1-B7 cells / Q9VF/5D-specific CTLs. As to the kind of experiment: Mouse CTL recognition of HIV-infected T1-B7 cells after epoxomicin treatment (IFNγ-ELISpot). In kind it is cell-based. How it is done:
Mouse CTL lines were derived from splenocytes of peptide immunized HLA-B*07^mα3 transgenic mice. In brief, these mice express HLA-B*0702 heavy chain with a murine α3 domain and their H-2K^b and H-2D^b class Ia genes have been inactivated. Cytolytic activity of splenocyte cultures was first assessed in a^51Cr release assay. Peptide specific CTL lines were stimulated in vitro (5 µg/mL of peptide) and cultured in RPMI 1640 medium supplemented with 10% FCS, 0.5 µM 2-β-mercaptoethanol (Sigma), 100 IU/mL penicillin and 100 µg/mL streptomycin (Gibco-BRL). Ten days later, 2×10^3, 400 and 80 CTLs in triplicates were stimulated by 10^5 HIV-1-infected T1-B7 cells and IFNγ release was detected by ELISpot assay. Cross-reactivity of Q9VF/5D- and Q9VF/5N-specific CTLs was tested in IFNγ-ELISpot and Cr^51-release assays using T1-B7 peptide-loaded cells. Mouse CTL lines specific for the HLA-B*0702-restricted HIV-1 Nef-derived epitope F10LR (Nef 68[…]77; [22]) were used as controls. When stated, HIV-infected T1-B7 cells were treated with epoxomicin (6 h, 1 µg/ml, Calbiochem). To remove residual MHC-peptide complexes, epoxomycin-exposed cells were treated with a citrate-phosphate buffer (pH 3.3) containing 1% BSA and washed twice, prior co-culture with CTLs for an additional 8 h.

Another series has as its system immunoproteasomes (IP). As to the kind of experiment: Immunoproteasomes isolated from T2.27mp cells, in 20 mM Hepes/KOH, pH 7.8, 2 mM magnesium acetate and 2 mM dithiothreitol. As to conditions: up to 18 h.
In a further series the test system is immunoproteasome (IP). The experiment in a line: Immunoproteasomes isolated from T2.27mp cells; 20 mM Hepes/KOH, pH 7.8, 2 mM magnesium acetate, 2 mM dithiothreitol. As to conditions: human, up to 18 h.

With “MGKSSRREGFQPRSNTHVFSIIRRSHP [Q9VF/5N substrate]”, in series [1], the metabolised at 0.5 h, 30 µM was determined as 24% and the metabolised at 2 h, 30 µM was 96%.

On to `CC[C@H](C)[C@H](NC(=O)[C@H]([C@@H](C)CC)N(C)C(C)=O)C(=O)N[C@H](C(=O)N[C@@H](CC(C)C)C(=O)[C@@]1(C)CO1)[C@@H](C)O` [Epoxomicin, epoxomicin], for which the “effect on activation of Q9VF/5D-specific CTLs by HIVLAI-infected cells” value in series [2] (epoxomicin 1 µg/ml, 6 h at 37°C, citrate-phosphate buffer pH 3.3 wash, 8 h co-culture, IFNγ-ELISpot, representative of three CTL clones) is reported as “abolished the capacity of HIVLAI-infected cells to activate Q9VF/5D-specific CTLs”. In addition, the “effect on MHC-density and presentation of exogenous peptide” value in series [2] (epoxomicin-treated T1-B7 cells, FACS, exogenous peptide 0.1 µg/ml) is recorded as “affected neither MHC-density”.

With MGKSSRREGFQPRSDTHVFSIIRRSHP, the cleaved bond entry with immunoproteasomes (IP) is “F10-Q11, major; also recorded: F19-S20, major, 30 min; also recorded: I22-R23, major; also recorded: R24-S25, major; also recorded: S14-D15; also recorded: S4-S5; also recorded: R6-R7; also recorded: R23-R24”.

For the molecule MGKSSRREGFQPRSNTHVFSIIRRSHP, in the series with immunoproteasomes (IP), the cleaved bond entry is listed as “F19-S20, 30 min; also recorded: S4-S5; also recorded: F10-Q11, 1 h; also recorded: I22-R23; also recorded: R24-S25; also recorded: N15-T16, major, 30 min”. The fragment found entry with immunoproteasome (IP) is recorded as “Q9VF (Q11-F19), minor”.

“MGKSSRREGFQPRSDTHVFSIIRRSHP [Q9VF/5D substrate]”: in series [1], the metabolised at 0.5 h, 30 µM is 24% and the metabolised at 2 h, 30 µM was determined as 96%.
